Patent US20140128733A1, “SYSTEMS AND METHODS FOR HEMODYNAMIC DETECTION OF CIRCULATORY ANOMALIES” (Cardiox Corporation, priority 2008, published 2014)
Counter-ions that a name gives are not always drawn.

Tests used:
[1] = Excitation and fluorescence signal attenuation through tissue versus depth of artery (FIG. 2); format: physicochemical; conditions: FIG. 2 curve 38
Text: (§1) Looking to the ICG dye spectrum, an excitation curve is shown at 34, having a peak excitation wavelength at about 785 nanometers. Correspondingly, the fluorescence emission from excitation at curve 34 is represented at curve 36 with a peak emission wavelength of about 830 nanometers. Directed across FIG. 2 is a curve 38 representing the level of constant signal attenuation or absorption of about 37% resulting from passage of signal through tissue. Note that if a blood vessel is about one millimeter beneath the surface of skin, the system would perform at about 37% of the original intensity of the excitation signal and fluorescence signal for the case of ICG dye indicator. In contrast, a 37% decrease in excitation and emission signal level would result for the fluorescein dye indicator at a tissue thickness of only 0.25 mm. Since the blood vessels being targeted are at least 1 mm below the skin surface, the attenuation and associated signal loss would be much larger. Therefore, ICG dye is the preferred indicator.
Turning again to the ICG dye spectrum, note that the excitation signal 34 for ICG intersects curve 38 at a depth allowing for readily reaching blood vessels, for example within the pinna (e.g., scaphoid fossa) of the ear. Accordingly, ICG dye is usable as a circulatory tracking agent when detecting through skin, and ICG dye was the indicator elected for subsequent study.

[2] = Excitation and fluorescence emission wavelengths of the dyes (FIG. 2); format: physicochemical
Text: Looking to FIG. 2 in this regard, the excitation signal for fluorescein dye is represented at curve 30 which is an excitation signal at less than about 500 nanometers (nm). A resultant fluorescence emission from the excitation at 30 is shown at curve 32, at a wavelength of about 525 nm.
as §1
When an ICG indicator within the bloodstream reaches the site of irradiation with 785 nm (laser) light, the fluorescent moiety within the ICG indicator is excited as described in connection with FIG. 2 to an elevated energy state for a brief period. As the excited moiety returns to its normal energy state, it emits light at a longer wavelength (viz., 830 nm) and the difference between the excitation wavelength (viz., 785 nm) and the fluorescence emission wavelength (viz., 830 nm) is known as the Stokes Shift. This Stokes Shift of nominally 45 nm allows the fluoresce emission to be extracted by using a interferential or other type of optical filter to reflect or otherwise attenuate all but the wavelength band of interest (viz., 820 to 840 nm).

CC1(C)C(/C=C/C=C/C=C/C=C2\N(CCCCS(=O)(=O)O)c3ccc4ccccc4c3C2(C)C)=[N+](CCCCS(=O)(=O)[O-])c2ccc3ccccc3c21 [ICG, 2-[7-[1,1-dimethyl-3-(4-sulfobutyl)benz[e]indolin-2-ylidene]-1,3,5-heptatrienyl]-1,1-dimethyl-3-(4-sulfobutyl)-1H-benz[e]indolium hydroxide, inner salt, sodium salt]
tissue depth at constant signal attenuation of about 37% [1]: about one
excitation wavelength ([2]; FIG. 2): about 785 nm
fluorescence emission wavelength ([2]; FIG. 2): about 830 nm
Stokes Shift ([2]; difference between excitation and fluorescence emission wavelength): ~45 nm
